The values below are quoted from earlier work in paper PMC12039075 (Structure (London, England : 1993), 2022).

Structures are written as SMILES.

In this data set the test system is human nicotinic receptor (HNR) α4/β2 subunit.

With `CN1CCC[C@H]1c1cccnc1` [nicotine], the published affinity range was 0.6 to 10 nM.
